Our source for the IC50 values is patent US12622917B2, “High-activity Wnt pathway inhibitor compound” (ADLAI NORTYE BIOPHARMA CO., LTD., priority 2020, dated 2026).

Test [1] has as its system Colo205. Kind of test: Proliferation inhibition, Wnt mutant cell line Colo205. The class given is cell-based. Conditions: Colo205, Wnt pathway-dependent, 96 hours, read-out: Antiproliferative IC50 Colo205. An outline of the steps:
(§1)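 IC50 for growth inhibition came from a 96-hour incubation with serially diluted compound (3-fold, top 20 uM final), with cells seeded at 1000 per well the day before and read by a Promega viability assay.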

Test [2] has as its system NCI-H929. Kind of test: Proliferation inhibition, NCI-H929 cell line. Conditions: Homo sapiens; NCI-H929 cells, 96 hours culture, cell viability detection; read-out: Antiproliferative IC50 NCI-H929. It counts as cell-based, human. An outline of the steps: (§2)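 Wnt-dependent proliferation in HepG2 and NCI-H929 cells, seeded at 4000 cells/well and pre-incubated 20-24 h at 37 °C. Cells were then exposed for 96 h to 3-fold serial dilutions (top final concentration 20 uM), and viability was read by signal intensity. IC50 was referenced to DMSO-only wells and cell-free wells.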

Test [3] deals with Hela. Kind of test: Proliferation inhibition, non-Wnt mutant control cell line Hela. It counts as cell-based. To be noted: Wnt-independent control cell line, 96 hours, read-out: Antiproliferative IC50 Hela. The source says:
The cell lines used in the experiment are Colo205 and DU4475 cell lines whose Wnt pathway is continuously activated and whose proliferation is Wnt pathway-dependent; while the BELA and RKO cell lines, whose Wnt pathway is not activated under normal circumstances and the proliferation is independent of Wnt pathway, as control cell lines. It is Judged that the inhibitory effect of the compound of the present invention on Wnt-dependent proliferation is not caused by other non-specific toxicity.
Treat the Colo205, Du4475, HELA and RKO cell lines cultured in their respective mediums in the logarithmic growth phase, collect the cells and prepare a uniform cell suspension of known concentration, and then add it to the 96-well cell culture plate Cell suspension, so that each well contains 1000 cells. Put it into a 5% CO2 incubator and incubate at 37° C. for 20-24 h. On the second day, the fully dissolved, 3-fold serially diluted compound was added to each cell culture well, so that the final maximum concentration in the cell culture well was 20 uM, and the culture was continued for 96 hours. In this test, Promega's cell viability detection test is used for detection. The more the cells proliferate, the stronger the final signal intensity will be. The detection instrument is SpectraMax, full wavelength mode. The wells only added with DMSO were used as positive control wells, and the wells that were not inoculated with cells were used as negative control wells. […] The IC50 value of cell proliferation inhibition was used to evaluate the inhibitory effect of the compound on the Wnt pathway and the toxic effect on normal cells (Table 2).

For test [4], the system named is HepG2. Kind of test: Proliferation inhibition, HepG2 cell line. It counts as cell-based. Conditions: Homo sapiens; HepG2 cells, 96 hours culture, cell viability detection; read-out: Antiproliferative IC50 HepG2. A digest of the protocol: as §2
The test system of test [5] is DU4475. Kind of test: Proliferation inhibition, Wnt mutant cell line DU4475. To be noted: DU4475, Wnt pathway-dependent, 96 hours, read-out: Antiproliferative IC50 DU4475. The class given is cell-based. An outline of the steps: as §1
The subject of test [6] is RKO. In words: Proliferation inhibition, non-Wnt mutant control cell line RKO. It counts as cell-based. Conditions: Wnt-independent control cell line, 96 hours, read-out: Antiproliferative IC50 RKO. A digest of the protocol: as §1
Test [7] relates to Colo205-LUC-TCF/LEF M1 reporter cell line (Wnt pathway). Kind of test: Colo205-LUC-TCF/LEF M1 reporter gene (luciferase) inhibition. The class given is cell-based. Conditions: 4 hours incubation, luciferase readout. An outline of the steps: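 Luminescent readout of TCF/LEF-regulated luciferase after a 4 h, 37° C compound exposure in a stable Colo205 reporter clone (10,000 cells/well). Serial 3-fold dilutions started at 20 uM; IC50 derived using DMSO-treated cells and no-cell wells as controls.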
In general terms: Reporter assays use an easily measured gene product as a stand-in for the process of interest.

Where two headings read alike, the source gives them in different places. A value given as a limit tells only on which side of the number the result lay.

For the molecule `[2H]C([2H])([2H])N1c2nc(NCc3ccc(Oc4ccc(C(F)(F)F)nc4)nc3)nc3c2N(CCC3)C(=O)[C@@H]1C` [105 (W199)], the IC50 (commonly the midpoint of a concentration-inhibition curve) in test [1] (Homo sapiens, COLO 205) was 0.021 µM; in test [2] it was 0.045 µM; in test [3] (Homo sapiens), over 10 µM; in test [4], 0.044 µM; in test [5] (Homo sapiens, DU-4475), 0.031 µM; in test [6] (Homo sapiens), over 10 µM. The molecule further yielded an IC50 in test [7] of 0.031 µM.
Take `C[C@H]1C(=O)N2CCCc3nc(NCc4ccc(Oc5cnc(C(F)(F)F)nc5)nc4)nc(c32)N1C` [91 (W221)]: the IC50 in test [1] (Homo sapiens, COLO 205) is 0.031 µM; in test [2] it was 0.065 µM; in test [3] (Homo sapiens), over 10 µM; in test [4], 0.035 µM; in test [5] (Homo sapiens, DU-4475), 0.024 µM; in test [6] (Homo sapiens), over 10 µM. For the same molecule, the IC50 in test [7] was found to be 0.028 µM.
On to `O=C1[C@@H]2CCCN2c2nc(NCc3ccc(Oc4ccc(C(F)(F)F)nc4)nc3)nc3c2N1CCC3` [111 (W241), (S)-2-(((6-((6-(trifluoromethyl)pyridin-3-yl)oxo)pyridin-3-yl)methyl)amino)-5,6,8a,9, 10,11-hexahydro-4H,8H-pyrido[3,2,1-de]pyrrolo[2,1-h]pteridin-8-one], for which the IC50 was 0.02 µM in test [1] (Homo sapiens, COLO 205); 0.094 µM in test [2]; over 10 µM in test [3] (Homo sapiens); 0.04 µM in test [4]; 0.037 µM in test [5] (Homo sapiens, DU-4475); over 10 µM in test [6] (Homo sapiens). The same molecule returned an IC50 in test [7] of 0.021 µM.
Turning to `COC[C@H]1Cn2ccc3nc(NCc4cnn(Cc5ccc(C(F)(F)F)nc5)c4)nc(c32)N1C` [68 (W49)], the IC50 is 0.0082 µM in test [1] (Homo sapiens, COLO 205); over 10 µM in test [3] (Homo sapiens); 0.0044 µM in test [4]; 0.0128 µM in test [5] (Homo sapiens, DU-4475); over 10 µM in test [6] (Homo sapiens); 0.012 µM in test [7].
Turning to `FC(F)(F)c1ccc(Cn2cc(CNc3nc4c5c(ccn5C[C@@H]5COCCN45)n3)cn2)cn1` [Example 28, (R)—N-((1-((6-(trifluoromethyl)pyridin-3-yl)methyl)-1H-pyrazol-4-yl)methyl)-7a,8,10,11-tetrahydro-7H-[1,4]oxazino[3,4-h]pyrrolo[3,2,1-de]pteridin-2-amine], the half-maximal inhibitory concentration (IC50) in test [1] (Homo sapiens, COLO 205) is 0.029 µM; in test [3] (Homo sapiens), over 10 µM; in test [5] (Homo sapiens, DU-4475), 0.034 µM; in test [6] (Homo sapiens), over 10 µM; in test [7] it was 0.027 µM.
With `C[C@H]1CN(C2CC2)c2nc(NCc3cnn(Cc4ccc(C(F)(F)F)nc4)c3)nc3ccn1c23` [90 (W152)], the IC50 in test [1] (Homo sapiens, COLO 205) was 0.042 µM; in test [3] (Homo sapiens), over 10 µM; in test [5] (Homo sapiens, DU-4475) it was 0.037 µM; in test [6] (Homo sapiens), 5.66 µM; in test [7], 0.024 µM.
In the same order, the values of `CN1c2nc(NCc3cnn(Cc4ccc(C(F)(F)F)nc4)c3)nc3ccn(c23)C[C@@H]1CO` [71 (W56)] are 0.0135 µM, over 10 µM, 0.0167 µM, over 10 µM and 0.02 µM.
Turning to `CC(C)[C@H]1C(=O)N2CCCc3nc(NCc4ccc(Oc5ccc(C(F)(F)F)nc5)nc4)nc(c32)N1C` [117 (W237), (S)-5-isopropyl-4-methyl-2-(((6-((6-(trifluoromethyl)pyridin-3-yl)oxo)pyridin-3-yl)methyl)amino)-4,5,9,10-tetrahydro-6H,8H-pyrido[3,2,1-de]pteridin-6-one], the IC50 in test [1] (Homo sapiens, COLO 205) was 0.0034 µM; in test [2] it was 0.027 µM; in test [3] (Homo sapiens), over 10 µM; in test [4] it was 0.0031 µM; in test [5] (Homo sapiens, DU-4475), 0.0082 µM; in test [6] (Homo sapiens) it was over 10 µM. This molecule also showed an IC50 in test [7] of 0.004 µM.
`C[C@H]1Cn2ccc3nc(NCc4cnn(Cc5ccc(F)cc5)c4)nc(c32)N1CCO` [62 (W13)]: the IC50 came to 0.0133 µM in test [1] (Homo sapiens, COLO 205); 7.21 µM in test [3] (Homo sapiens); 0.0135 µM in test [5] (Homo sapiens, DU-4475); 6.54 µM in test [6] (Homo sapiens); 0.014 µM in test [7].
Consider `C[C@H]1Cn2ccc3nc(NCc4cnn(CC5CCC(F)(F)CC5)c4)nc(c32)N1C` [83 (W116)], for which the IC50 in test [1] (Homo sapiens, COLO 205) was 0.0051 µM; in test [3] (Homo sapiens) it was 4.9 µM; in test [5] (Homo sapiens, DU-4475), 0.0051 µM; in test [6] (Homo sapiens), 7.47 µM; in test [7] it was 0.01 µM.
Turning to `C[C@H]1Cn2ccc3nc(NCc4cnn(CC(F)(F)F)c4)nc(c32)N1C` [80 (W104)], the IC50 in test [1] (Homo sapiens, COLO 205) is 0.0246 µM; in test [3] (Homo sapiens), over 10 µM; in test [4], 0.0093 µM; in test [5] (Homo sapiens, DU-4475), 0.0275 µM; in test [6] (Homo sapiens), over 10 µM; in test [7] it was 0.01 µM.
For `C[C@H]1Cn2ccc3nc(NCc4ccc(Oc5ccc(C(F)(F)F)nc5)cc4)nc(c32)N1C` [78 (W87)], the half-inhibitory concentration (IC50) in test [1] (Homo sapiens, COLO 205) amounted to 0.0278 µM; in test [3] (Homo sapiens), 0.914 µM; in test [5] (Homo sapiens, DU-4475), 0.0263 µM; in test [6] (Homo sapiens) it was 1.42 µM; in test [7], 0.028 µM.
With `C[C@H]1CN(C)c2nc(NCc3cnn(Cc4ccc(C(F)(F)F)nc4)c3)nc3cc(C(F)F)n1c23` [Example 21, (S)-8-(difluoromethyl)-4,6-dimethyl-N-((1-((6-(trifluoromethyl)pyridin-3-yl)methyl)-1H-pyridine Azol-4-yl)methyl)-5,6-dihydro-4H-pyrrolo[3,2,1-de]pteridin-2-amine], the IC50 is 0.097 µM in test [1] (Homo sapiens, COLO 205); over 10 µM in test [3] (Homo sapiens); 0.073 µM in test [5] (Homo sapiens, DU-4475); 3.03 µM in test [6] (Homo sapiens); 0.03 µM in test [7].
Turning to “(S)-6,7-dimethyl-4-(((1-((6-(trifluoromethyl)pyridin-3-yl)methyl)-1H-pyrazol-4-yl)methyl)amino)-7,8-dihydro-3,5,6,9a-tetraazabenzo[cd]azulene-9(6H)-one [Example 6]”, the IC50 in test [1] was 0.046 µM; in test [3], over 10 µM; in test [5], 0.059 µM; in test [6], over 10 µM; in test [7], 0.057 µM.
With `C[C@H]1Cn2ccc3nc(NCc4cnn(CCCC(F)(F)F)c4)nc(c32)N1C` [81 (W105)], the IC50 was 0.0334 µM in test [1] (Homo sapiens, COLO 205); over 10 µM in test [3] (Homo sapiens); 0.0193 µM in test [5] (Homo sapiens, DU-4475); over 10 µM in test [6] (Homo sapiens); 0.017 µM in test [7].
In the case of `C[C@H]1C(=O)N2CCCc3nc(NCc4ccc(Oc5cncc(C(F)(F)F)c5)nc4)nc(c32)N1C` [99 (W193)], the IC50 in test [1] (Homo sapiens, COLO 205) was 0.012 µM; in test [3] (Homo sapiens) it was over 10 µM; in test [5] (Homo sapiens, DU-4475), 0.021 µM; in test [6] (Homo sapiens), over 10 µM; in test [7], 0.027 µM.
As to `C[C@H]1Cn2ccc3nc(NCc4ccc(Oc5ccc(C(F)(F)F)nc5)nc4)nc(c32)N1C` [77 (W86)], the IC50 in test [1] (Homo sapiens, COLO 205) stood at 0.0047 µM; in test [3] (Homo sapiens), 2.92 µM; in test [5] (Homo sapiens, DU-4475), 0.0051 µM; in test [6] (Homo sapiens), 4.01 µM; in test [7], 0.008 µM.
On to `C[C@H]1Cn2ccc3nc(NCc4ccc(OCC(F)(F)F)nc4)nc(c32)N1C` [82 (W107)], for which the IC50 came to 0.0124 µM in test [1] (Homo sapiens, COLO 205); 1.44 µM in test [3] (Homo sapiens); 0.001 µM in test [4]; 0.011 µM in test [5] (Homo sapiens, DU-4475); 1.83 µM in test [6] (Homo sapiens); 0.006 µM in test [7].
As to `C[C@H]1Cn2c(C(F)F)cc3nc(NCc4cnn(Cc5ccc(C(F)(F)F)nc5)c4)nc(c32)N1C` [Example 22, (S)-8-(difluoromethyl)-4,5-dimethyl-N-((1-((6-(trifluoromethyl)pyridin-3-yl)methyl)-1H-pyridine Azol-4-yl)methyl)-5,6-dihydro-4H-pyrrolo[3,2,1-de]pteridin-2-amine], the IC50 is 0.022 µM in test [1] (Homo sapiens, COLO 205); over 10 µM in test [3] (Homo sapiens); 0.019 µM in test [5] (Homo sapiens, DU-4475); 5.42 µM in test [6] (Homo sapiens); 0.01 µM in test [7].
